Bounds are passed on as bounds.

These results are taken from ChEMBL document CHEMBL1862790, “Optimisation of fenarimol series for the treatment of Chagas disease”.

Data set [1] is described as follows: DNDI: Cytotoxicity against L-6 rat myoblasts from skeletal muscle cells. To be noted: L6 rat skeletal muscle myoblast cells.
Data set [2] has as its system Trypanosoma cruzi. As to the kind of experiment: microbe, parasite or virus in culture. Format: functional, organism-based, Tulahuen LacZ, Clone C4. To be noted: Trypanosoma cruzi, Tulahuen LacZ, Clone C4.
Data set [3] relates to Trypanosoma cruzi. As to the kind of experiment: microbe, parasite or virus in culture. The class given is functional, Tulahuen LacZ, Clone C4. The conditions noted are these: Trypanosoma cruzi, Tulahuen LacZ, Clone C4.

Regarding `O=C(NC1CCN(C(c2cncnc2)c2ccc(Cl)cc2F)CC1)c1cc(F)ccc1F` (stereo unspecified), the IC50 in data set [1] (IC50) was determined as 74100 nM; in data set [2], 22.5 nM. Besides, in data set [3], the IC90 is 104 nM.

As for `OC(c1ccc(Cl)cc1)(c1ccc(C(F)(F)F)cc1)c1cnc2ccccc2c1` (stereo unspecified), the figures for the IC50 in data set [1] (IC50) and in data set [2] were 62600 nM and more than 1000 nM, respectively. The same compound displayed an IC90 in data set [3] of more than 1000 nM.

In the case of `Cc1ncoc1C(=O)NC1CCN(C(c2ccc(C#N)cc2)c2cccnc2)CC1` (stereo unspecified), the IC50 in data set [1] (IC50) was more than 100000 nM; in data set [2] it was 183 nM. It took 320 nM to reach the 90% level in data set [3] (IC90).

`O=C(NC1CCN(C(c2cncnc2)c2ccc(Cl)cc2F)CC1)c1c(F)cccc1F` (stereo unspecified): the 50% inhibitory concentration (IC50) is 82300 nM in data set [1] (IC50) and 15.5 nM in data set [2]. The compound further displayed an IC90 in data set [3] of 204 nM.

For the compound `CCCCC(O)(c1ccc(Cl)cc1)c1cncnc1` (stereo unspecified), the IC50 in data set [1] (IC50) was more than 100000 nM; in data set [2], 500 nM. The IC90 in data set [3] amounted to 1890 nM.

In the case of `OC(c1ccc(Cl)cc1)(c1cccnc1)c1cnc(OC(CF)CF)nc1` (stereo unspecified), the IC50 in data set [1] (IC50) was more than 100000 nM; in data set [2], 32 nM. The compound further showed an IC90 in data set [3] of 150 nM.

Consider `CC(C)C(=O)N1CCC(NC(c2ccc(C(F)(F)F)cc2)c2cnccn2)CC1` (stereo unspecified), for which the figures for the IC50 in data set [1] (IC50) and in data set [2] were more than 100000 nM and 230 nM, respectively. This compound showed an IC90 in data set [3] of 490 nM.

Consider `OC(c1cccnc1)(c1cccs1)c1ccccc1Cl` (stereo unspecified), for which the IC50 in data set [1] (IC50) was more than 100000 nM; in data set [2] it was 345 nM. The IC90 in data set [3] was found to be 670 nM.

For `CCn1nc(C)cc1C(=O)NC1CCN(C(c2ccc(C#N)cc2)c2cccnc2)CC1` (stereo unspecified), the figures for the IC50 in data set [1] (IC50) and in data set [2] were more than 100000 nM and 504 nM, respectively. Moreover, in data set [3], the 90% effect level (IC90) was put at 934 nM.

On to `N#Cc1ccc(C(c2cccnc2)N2CCC(NC(=O)c3ccccc3F)CC2)cc1` (stereo unspecified), for which the IC50 in data set [1] (IC50) was more than 100000 nM; in data set [2], 23.5 nM. The same compound displayed an IC90 in data set [3] of 402 nM.

On to `CC1=C(C(=O)Nc2ccccc2)SCCO1` [CARBOXIN], for which the IC50 in data set [1] was more than 100000 nM; in data set [2], 22400 nM. This compound also registered an IC90 in data set [3] of 57500 nM.

With `NC(=O)C1CCN(C(c2ccc(C(F)(F)F)cc2)c2cnccn2)CC1` (stereo unspecified), the IC50 was more than 100000 nM in data set [1] (IC50) and 6410 nM in data set [2]. In data set [3], this compound registered an IC90 of more than 10000 nM.

Regarding `CC(C)c1ccc(S(=O)(=O)N2CCN(C(c3ccc(Cl)cc3)c3cncnc3)CC2)cc1` (stereo unspecified), the IC50 came to 46100 nM in data set [1] (IC50) and 24 nM in data set [2]. The IC90 in data set [3] was found to be 78 nM.

Take `CC(C)Oc1ccc(C(O)(c2cccnc2)c2cnc(Cl)nc2)cc1` (stereo unspecified): the IC50 in data set [1] (IC50) is more than 100000 nM; in data set [2], 293 nM. In data set [3], this compound showed an IC90 of 670 nM.

Take `Cc1ccsc1C(O)(c1ccc(Cl)cc1)c1cccnc1` (stereo unspecified): the IC50 in data set [1] (IC50) was 74200 nM; in data set [2] it was 20 nM. This compound also yielded an IC90 in data set [3] of 90 nM.

Regarding `CC(C)C(=O)N1CCN(C(c2cccnc2)c2ccc(Cl)cc2F)CC1` (stereo unspecified), the IC50 is more than 100000 nM in data set [1] (IC50) and 62 nM in data set [2]. Also, it took 220 nM to reach the 90% level in data set [3] (IC90).

For the compound `CC(C)(C)CC(=O)N1CCC(NC(c2ccc(Cl)cc2)c2cccnc2)CC1` (stereo unspecified), the IC50 in data set [1] (IC50) is more than 100000 nM; in data set [2], 31 nM. The compound further returned an IC90 in data set [3] of 94 nM.

Regarding `N#Cc1cc(N2CCC(NC(c3cccnc3)c3ccc(Cl)cc3F)CC2)ccc1F` (stereo unspecified), the IC50 was 38400 nM in data set [1] (IC50) and 20.7 nM in data set [2]. The 90% effect level in data set [3] (IC90) was put at 47 nM.

As for `O=C(NC1CCN(C(c2cncnc2)c2ccc(Cl)cc2F)CC1)c1ccc(F)cc1C(F)(F)F` (stereo unspecified), the 50% inhibitory concentration (IC50) in data set [1] (IC50) worked out at 71400 nM; in data set [2], 11 nM. The IC90 in data set [3] turned out to be 82.9 nM.

`CC(C)Oc1ccc(C(NC2CCN(C(=O)OC(C)(C)C)CC2)c2cccnc2)cc1` (stereo unspecified): the IC50 in data set [1] (IC50) is 58800 nM; in data set [2] it was 6.2 nM. The compound further gave an IC90 in data set [3] of 11 nM.

Turning to `N#Cc1ccc(C(c2cccnc2)N2CCC(NC(=O)c3ccc(F)cc3)CC2)cc1` (stereo unspecified), the IC50 in data set [1] (IC50) is more than 100000 nM; in data set [2], 18.5 nM. This compound also displayed an IC90 in data set [3] of 122 nM.

In the case of `CCn1cc(C(NC2CCN(c3ccc(S(C)(=O)=O)cc3)CC2)c2cccnc2)cn1` (stereo unspecified), the IC50 is more than 100000 nM in data set [1] (IC50) and 6040 nM in data set [2]. In data set [3], this compound came in with an IC90 of more than 10000 nM.

With `Cc1nc(C)c(C(=O)N2CCC(NC(c3ccc(C(F)(F)F)cc3)c3cccnc3)CC2)s1` (stereo unspecified), the figures for the IC50 in data set [1] (IC50) and in data set [2] were more than 100000 nM and 216 nM, respectively. The compound also displayed an IC90 in data set [3] of 658 nM.

In the case of `N#Cc1ccc(C(c2cccnc2)N2CCC(NC(=O)c3cc(F)ccc3F)CC2)cc1` (stereo unspecified), the IC50 is more than 100000 nM in data set [1] (IC50) and 15.5 nM in data set [2]. Also, in data set [3], the IC90 came to 49 nM.

`CC(C)CS(=O)(=O)N1CCC(NC(c2cnccn2)c2ccc(F)cc2F)CC1` (stereo unspecified): the figures for the IC50 in data set [1] (IC50) and in data set [2] were more than 100000 nM and 560 nM, respectively. In data set [3], this compound yielded an IC90 of 960 nM.

As for `O=C(NC1CCN(C(c2ccc(Cl)cc2)c2cccnc2)CC1)c1ccccc1` (stereo unspecified), the IC50 in data set [1] (IC50) worked out at 64100 nM; in data set [2], 10 nM. The same compound returned an IC90 in data set [3] of 430 nM.

As for `FC(F)(F)Cn1cc(C(NC2CCN(c3ccc(OC(F)(F)F)cc3)CC2)c2cccnc2)cn1` (stereo unspecified), the IC50 was 66600 nM in data set [1] (IC50) and 65 nM in data set [2]. For the same compound, in data set [3], the IC90 was more than 100 nM.
